The results in this text go back to PMC3618488 (Chemical communications (Cambridge, England), 2013).

The experiment addresses Pseudomonas aeruginosa elastase (LasB) (Pseudomonas aeruginosa, UniProt P14756). As to the kind of experiment: biochemical. Particulars: for fold reduction in potency relative to tropolone (3): against LasB, compared with 3. The format is biochemical.

Like-named read-outs stand apart in the source and are kept apart here.

Pseudomonas aeruginosa elastase (LasB), sequence (P14756 198-498): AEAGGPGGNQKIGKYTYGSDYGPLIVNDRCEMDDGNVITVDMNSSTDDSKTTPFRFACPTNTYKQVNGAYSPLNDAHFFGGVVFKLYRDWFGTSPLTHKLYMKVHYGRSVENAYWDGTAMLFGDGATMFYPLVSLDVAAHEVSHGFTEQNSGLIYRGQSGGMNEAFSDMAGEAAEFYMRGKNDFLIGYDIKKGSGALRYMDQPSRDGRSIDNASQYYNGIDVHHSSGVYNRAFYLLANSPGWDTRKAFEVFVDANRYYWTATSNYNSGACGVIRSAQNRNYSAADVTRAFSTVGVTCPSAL

Take acetyltropolone [compound 4]: the “fold reduction in potency relative to tropolone (3)” value is ~ 3 fold. A word on the IC50: it is the concentration that inhibits the measured activity by half. For `CC(C)c1cccc(=O)c(O)c1` [compound 5, β-thujaplicin], half-maximal inhibition (IC50) was put at 1340 ± 370 µM and the “fold reduction in potency relative to tropolone (3)” value is listed as ~ 3 fold.

As for `Nc1ccc(O)c(=O)cc1` [compound 6, 5-aminotropolone], the IC50 (read-out: IC50 for LasB inhibition) amounted to 180 ± 1 µM.
